The target in one assay is Bacillus anthracis DHFR (Bacillus anthracis, UniProt Q81R22). Put plainly: biochemical.
Assay [1] deals with Bacillus anthracis Sterne. As to the kind of experiment: microbe, parasite or virus in culture. In kind it is cell-based. Conditions: 16 h, read-out: MIC B. anthracis (ug/ml).
The target in a further assay is T1, human DHFR (Homo sapiens, UniProt P00374).
T1 sequence (P00374 1-187): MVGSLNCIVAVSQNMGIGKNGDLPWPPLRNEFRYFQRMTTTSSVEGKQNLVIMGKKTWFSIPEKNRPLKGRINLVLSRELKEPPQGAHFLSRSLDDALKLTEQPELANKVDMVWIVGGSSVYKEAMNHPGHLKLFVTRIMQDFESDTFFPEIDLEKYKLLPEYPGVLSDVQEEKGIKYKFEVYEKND
As to the kind of experiment: biochemical.

Data on seven compounds can be found in patent US8268825B2 (priority 2005, dated 2012).

Values after ≈ are worked out from the molar mass of the structure shown. A value given as a limit tells only on which side of the number the result lay.

Sequence of Bacillus anthracis DHFR (Q81R22 1-162): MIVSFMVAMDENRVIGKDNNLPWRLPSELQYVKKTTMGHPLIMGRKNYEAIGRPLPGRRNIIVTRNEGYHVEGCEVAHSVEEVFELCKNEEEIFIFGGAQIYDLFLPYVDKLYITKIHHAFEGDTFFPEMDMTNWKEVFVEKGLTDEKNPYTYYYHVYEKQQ

The term IC50 denotes the concentration that gives 50% inhibition. With `CCCC1c2ccccc2C=NN1C(=O)/C=C/c1cc(Cc2cnc(N)nc2N)cc(OC)c1OC` (stereo not shown), the half-maximal inhibitory concentration (IC50) at Bacillus anthracis DHFR turned out to be 0.054 µM; at human DHFR it was 110 µM. Besides, the MIC in assay [1] was 13 µg/mL (≈ 26.7 µM).
Regarding `COc1cc(Cc2cnc(N)nc2N)cc(/C=C/C(=O)N2N=Cc3ccccc3C2c2ccccc2)c1OC.CS(=O)(=O)O` (stereo not shown), at Bacillus anthracis DHFR, it took 0.046 µM to reach half-maximal inhibition (IC50). The MIC in assay [1] was 26 µg/mL.
For `CCCCC1c2ccccc2C=NN1C(=O)/C=C/c1cc(Cc2cnc(N)nc2N)cc(OC)c1OC` (stereo not shown), at Bacillus anthracis DHFR, the IC50 is 0.17 µM. Also, the MIC in assay [1] was no more than 13 µg/mL.
In the case of `COc1cc(Cc2cnc(N)nc2N)cc(/C=C/C(=O)N2N=Cc3ccccc3C2C2CCCCC2)c1OC` (stereo not shown), the IC50 on Bacillus anthracis DHFR came to 0.26 µM. Further, the MIC in assay [1] was no more than 13 µg/mL.
With `COc1cc(Cc2cnc(N)nc2N)cc(/C=C/C(=O)N2N=Cc3ccccc3C2C2CCCC2)c1OC` (stereo not shown), the half-maximal inhibitory concentration (IC50) is 0.2 µM against Bacillus anthracis DHFR and greater than 21 µM on human DHFR. For the same compound, the MIC in assay [1] was no more than 26 µg/mL.
As for `COc1cc(Cc2cnc(N)nc2N)cc(/C=C/C(=O)N2N=Cc3ccccc3C2c2ccccc2)c1OCCN1CCOCC1` (stereo not shown), the IC50 is 0.17 µM at Bacillus anthracis DHFR and greater than 16 µM on human DHFR. The MIC in assay [1] is no more than 32 µg/mL.
With `COc1cc(Cc2cnc(N)nc2N)cc(OC)c1OC` [Trimethoprim, reference compound], the MIC in assay [1] is greater than 2000 µg/mL.
